In brackets after ≈: the same amount, converted by molar mass. Read-outs that look alike come from different tables or passages of the source.
Columns and labels:
[1] = Oxygen radical absorbance capacity (ORAC) assay
Description: The ORAC assay was performed following Ou et al., as modified by Garcés-Rimón et al.. All samples and reagents were dissolved in phosphate buffer (75 mM; pH 7.4). […] The fluorescence was recorded at 40 °C every 55 s for 95 min using a fluorimeter (SpectraMax M2; Molecular Devices, California, USA), with excitation and emission wavelengths of 480 and 520 nm, respectively. All samples were tested in triplicate. ORAC values were expressed as μmol of Trolox equivalents (TE)/μmol of pure compound.

[2] = ABTS radical cation scavenging assay
Description: The 2,2′-azino-bis (3-ethylbenzothiazoline-6-sulfonic acid) diammonium salt (ABTS) assay was performed according to Re et al. and modified by Oki et al. for its use in microplates. Samples were diluted in methanol. An ABTS^•+ stock solution was prepared by adding 44 μL of potassium persulfate (140 mmol/L) to a 2.5 mL ABTS^•+ aqueous solution (7 mmol/L). The working solution of the radical ABTS^+ was prepared by diluting the stock solution 1:75 (v/v) in a sodium phosphate buffer (5 mmol/L, pH 7.4) to obtain an absorbance value of 0.7±0.02 at 734 nm. Samples (30 μL) were added to 270 μL of the working solution of ABTS^•+ in a microplate. Absorbance was measured at 734 nm and 30 °C for 20 min, every 5 min in a Synergy HT plate spectrophotometer (Biotek Instruments, Winoosky, VT, USA). A calibration curve was made with Trolox (20–250 μM). All samples were analyzed in triplicate. Results were expressed in μmol TE/μmol of pure compound, as for the ORAC assays.

[3] = Stability in aqueous media (H2O/acetonitrile 80:20, HPLC-MS); format: physicochemical; conditions: for Aqueous Stability (%): remaining pure compound (HPLC) after two months at room temperature in aqueous solution (+20% acetonitrile); for stability in aqueous media: H2O/acetonitrile (80:20%), room temperature, checked for 60 days
Description: The solutions were checked by HPLC-MS at regular intervals of time for 60 days. […] The rest of the compounds suffered progressive degradation, with complete disappearance from the solution after 10 or 20 days. The most unstable polyphenol derivatives were 4 and 10 (Figure S1), having both two p-dihydroxy substitutions in the phenyl rings, which points to the rapid and easy oxidation to the p-hydroquinone. From the four compounds with three phenyl rings, only one was stable in aqueous solution (17).

[4] = Aqueous thermodynamic solubility in H2O (UV); format: physicochemical; conditions: water, thermodynamic from solid
Description: 4) Log P and aqueous solubility of selected compounds.
Table S2. Theoretical Log P values and aqueous thermodynamic solubility measured for
Comp `Chemical Structure MW LogP Calc Aqueous Solubility a
a Thermodynamic solubility in H 2O (UV). […]

[5] = system: Saccharomyces cerevisiae strain BY4741; assay: In vivo antioxidant capacity in stressed yeasts (growth recovery, survivors); format: cell-based
Description: Saccharomyces cerevisiae haploid strain BY4741 was used as described previously. Briefly, 20 μL of glycerol stock culture was revived in 5ml of YPD medium (1% yeast extract, 2% bacteriological peptone and 2% dextrose) at 28 °C, with shaking (210 rpm). Fifty microliters of 20-h-old culture was used to inoculate fresh 5ml YPD (control medium) or 5 mL of oxidative stress medium (YPOxD: YPOxD; 1% yeast extract, 2% bacteriological peptone, 1% dextrose and 3% H2O2). Stress (and control) was conducted during 16h at 28 °C, with shaking (220 rpm).
Growth rate was determined from growth kinetics using the BioScreen C plate-reader system (OY Growth Curves Ab Ldt., Helsinki, Finland). Stressed yeast cultures (16 h old) were used to inoculate 200 µl of fresh media to an initial OD595 of 0.05–0.07, being distributed in 100-well honeycomb plates (Oy Growth Curves) in triplicate per each condition (each different dose of each compound). Plates were then incubated at 28 °C for 72h, with shaking (High force), taking OD measurement each 15 min in the Bioscreen C. Maximum growth rate (μmax) and biomass production (carrying capacity) were determined in R using ‘Growthcurver’ package version 0.3 [24]. Growth curves were constructed in EXCEL, represented as mean ± SEM (standard error of mean). […] In addition, to measure survival after oxidative stress and antioxidant effectiveness of each compound, yeast cells from each challenge were serially diluted in 96-well plates, and each dilution was spotted (with a 8 × 6 stainless steel replica platter from SIGMA) in triplicate to determine viable colonies after 24–48 h at 28 °C. Survivors (mean ± SEM) were compared between treatments with one-way ANOVA, Fisher’s LSD test, with alpha at 0.05 for significance.

Row | melting point | Aqueous Stability (%) [3] [%] | Structure (SMILES) | ORAC [1] | other results
1 | 124 to 126 °C | 0 | O=C(Cc1cc(O)ccc1O)N(c1ccc(O)cc1)c1ccc(O)cc1 [Compound 9, 2-(2′,5′-Dihydroxyphenyl)-N,N-bis(4-hydroxyphenyl)acetamide] | 29.5 ± 0.5 µmol of trolox/µmol of pure compound | ORAC ([1]; TE: Trolox Equivalents): above 25 TE
2 | 114 to 116 °C | 0 | O=C(Cc1cc(O)ccc1O)N(Cc1cc(O)ccc1O)c1ccc(O)cc1 [Compound 10, N-(2′,5′-Dihydroxybenzyl)-2-(2″,5″-dihydroxyphenyl)-N-(4-hydroxyphenyl) acetamide] | 27.6 ± 0.5 µmol of trolox/µmol of pure compound | stability in aqueous media [3]: most unstable; ORAC ([1]; TE: Trolox Equivalents): above 25 TE
3 | > 155 °C (dec.) |  | O=C(Nc1ccc(O)cc1O)Nc1cc(O)ccc1O [Compound 11, N-(2,4-Dihydroxyphenyl)-N′-(2′,5′-dihydroxyphenyl)urea] | 6.6 ± 0.1 µmol of trolox/µmol of pure compound | 
4 | 180 to 182 °C | 0 | O=C(Nc1ccc(O)cc1)Nc1cc(O)ccc1O [Compound 12, N-(2,5-Dihydroxyphenyl)-N′-(4′-hydroxyphenyl)urea] | 12.5 ± 0.7 µmol of trolox/µmol of pure compound | 
5 | 141 to 143 °C |  | O=C(Nc1ccc(O)c(O)c1)Nc1cc(O)ccc1O [Compound 13, N-(2,5-Dihydroxyphenyl)-N′-(3′,4′-dihydroxyphenyl)urea] | 7.8 ± 0.3 µmol of trolox/µmol of pure compound | 
6 | 184 to 187 °C | 0 | O=C(Nc1ccc(O)cc1)Nc1ccc(O)c(O)c1 [Compound 14, N-(3,4-Dihydroxyphenyl)-N′-(4′-hydroxyphenyl)urea] | 9.6 ± 0.1 µmol of trolox/µmol of pure compound | 
7 | 109 °C (dec.) | 0 | O=C(Nc1cc(O)ccc1O)Nc1cc(O)ccc1O [Compound 16, N,N′-bis(2,5-Dihydroxyphenyl)urea] | 11.9 ± 0.4 µmol of trolox/µmol of pure compound | 
8 | 114 to 115 °C | 0 | O=C(Nc1cc(O)ccc1O)N(Cc1cc(O)ccc1O)c1ccc(O)cc1 [Compound 18, N-(2′,5′-Dihydroxybenzyl)-N′-(2″,5″-dihydroxiphenyl)-N-(4-hydroxyphenyl)urea] | 15.3 ± 0.7 µmol of trolox/µmol of pure compound | 

The next lines start with the compound.

Row | Structure (SMILES) | melting point | Aqueous Stability (%) [3] [%] | ORAC [1] | other results
9 | Oc1cc(O)c2c(c1)O[C@H](c1ccc(O)c(O)c1)[C@H](O)C2 [(-)-Epicatechin, reference compound] |  |  | 10.03 ± 5.92 µmol of trolox/µmol of pure co | ABTS [2]: 5.90 ± 0.73 µmol of trolox/µmol of pure co
10 | O=C(Cc1cc(O)ccc1O)Nc1ccc(O)cc1O [Compound 1, N-(2,4-Dihydroxyphenyl)-2-(2′,5′-dihydroxyphenyl)acetamide] | 178 to 180 °C | 2 | 11.0 ± 0.4 µmol of trolox/µmol of pure compound | 
11 | O=C(Cc1ccc(O)cc1O)Nc1cc(O)ccc1O [Compound 2, 2-(2′,4′-Dihydroxyphenyl)-N-(2,5-dihydroxyphenyl)acetamide] |  |  | 8.1 ± 0.1 µmol of trolox/µmol of pure compound | 
12 | O=C(Cc1cc(O)ccc1O)Nc1cc(O)ccc1O [Compound 4, N-(2,5-Dihydroxyphenyl)-2-(2′,5′-dihydroxyphenyl)acetamide] | 204 to 207 °C (dec.) | 0 | 14.4 ± 0.2 µmol of trolox/µmol of pure compound | stability in aqueous media [3]: most unstable
13 | O=C(Cc1ccc(O)cc1O)Nc1ccc(O)cc1O [Compound 5, N-(2,4-Dihydroxyphenyl)-2-(2′,4′-dihydroxyphenyl)acetamide] | 75 to 78 °C |  | 5.2 ± 0.4 µmol of trolox/µmol of pure compound | 
14 | O=C(Cc1cc(O)ccc1O)Nc1ccc(O)c(O)c1 [Compound 6, 2-(2′,5′-Dihydroxyphenyl)-N-(3,4-dihydroxyphenyl)acetamide] | 180 °C (dec.) | 0 | 9.4 ± 0.4 µmol of trolox/µmol of pure compound | 
15 | O=C(Nc1ccc(O)cc1)Nc1ccc(O)cc1 [Compound 15, N,N′-bis(4-Hydroxyphenyl)urea] | 245 °C | 90 | 8.9 ± 0.4 µmol of trolox/µmol of pure compound | stability in aqueous media [3]: sufficiently stable; solubility [4]: 62.6 ± 0.1 µg/mL (≈ 256 µM); growth rate (r) recovery of stressed yeast ([5]; H2O2-stressed BY4741, doses 2, 20 and 40 μg): dose-related antioxidant effect; carrying capacity (k) recovery of stressed yeast ([5]; H2O2-stressed BY4741, each dose tested): able to recover the carrying capacity of yeast cells similarly as control antioxidants; carrying capacity (k) recovery of stressed yeast, 2 μg dose ([5]; low 2 μg dose): slightly better than the other two polyphenols and resveratrol; ABTS [2]: 1.17 ± 0.01 µmol of trolox/µmol of pure compound
16 | Oc1cc(O)c2c(c1)OC(c1ccc(O)c(O)c1)C(O)C2 [D-Catechin, reference compound] |  |  | 8.59 ± 0.84 µmol of trolox/µmol of pure co | ABTS [2]: 3.17 ± 1.22 µmol of trolox/µmol of pure co
17 | OCCc1ccc(O)c(O)c1 [Hydroxytyrosol, reference compound] |  |  | 6.33 ± 0.08 µmol of trolox/µmol of pure co | ABTS [2]: 0.97 ± 0.05 µmol of trolox/µmol of pure co
18 | O=c1c(O)c(-c2ccc(O)c(O)c2)oc2cc(O)cc(O)c12 [Quercetin, reference compound] |  |  | 6.61 ± 0.27 µmol of trolox/µmol of pure co | ABTS [2]: 5.28 ± 0.29 µmol of trolox/µmol of pure co
